Results as given in ChEMBL document CHEMBL6109156, “Discovery of Dual PD-L1/HDAC3 Inhibitors for Tumor Immunotherapy” (J Med Chem, 2025).
pIC50: −log10 of the molar value. Activity calls are given as the source filed them. The calls are words filed in the database; no cut-off is given here.

Key:
[1] = tested on: B16-F10; assay: Antitumor activity against mouse B16-F10 cells implanted in C57BL/6J mouse assessed as tumor growth inhibition at 20 mg/kg, ip administered once daily for 9 days; format: functional; details: B16-F10, 216 h, time 9 day, read-out: TGI
[2] = tested on: B16-F10; assay: Antiproliferative activity against mouse B16-F10 cells assessed as cell growth inhibition incubated for 48 hrs by MTT assay; format: functional, cell-based; details: B16-F10, 48 h
[3] = tested on: A-375; assay: Antiproliferative activity against human A-375 cells assessed as cell growth inhibition incubated for 48 hrs by MTT assay; format: functional, cell-based; details: A-375, 48 h
[4] = target: Programmed cell death protein 1/Programmed cell death 1 ligand 1 (Homo sapiens, UniProt Q9NZQ7); assay: (§1) Inhibition of PD-1/PD-L1 (unknown origin) interaction assessed as inhibition rate at 1 uM by HTRF assay relative to control; format: protein-complex assay
[5] = target: Programmed cell death protein 1/Programmed cell death 1 ligand 1 (Homo sapiens) (UniProt Q15116+Q9NZQ7); assay: as §1; format: protein-complex assay
[6] = tested on: B16-F10; assay: Induction of cell cycle arrest in mouse B16-F10 cells assessed as accumulation of cells at G0/G1 phase at 4 uM incubated for 48 hrs by PI staining based flow cytometry analysis (reference value: 70.09%); format: functional
[7] = tested on: B16-F10; assay: Induction of cell cycle arrest in mouse B16-F10 cells assessed as accumulation of cells at S phase at 4 uM incubated for 48 hrs by PI staining based flow cytometry analysis (reference value: 24.04%); format: functional
[8] = tested on: B16-F10; assay: Induction of apoptosis in mouse B16-F10 cells assessed as viable cells at 1 uM incubated for 48 hrs by Annexin V-FITC/PI staining based flow cytometry analysis (reference value: 92.3%); format: functional; details: read-out: Activity
[9] = tested on: A-375; assay: Antiproliferative activity against human A-375 cells assessed as cell viability incubated for 48 hrs by MTT assay; format: functional, cell-based
[10] = tested on: B16-F10; assay: Induction of apoptosis in mouse B16-F10 cells assessed as late apoptotic cells at 2 uM incubated for 48 hrs by Annexin V-FITC/PI staining based flow cytometry analysis (reference value: 5.02 %); format: functional
[11] = target: Histone deacetylase 1 (Homo sapiens, UniProt Q13547); assay: Inhibition of human recombinant HDAC1 using Ac-Leu-Gly-Lys (Ac)-AMC as substrate preincubated for 10 mins followed by substrate addition and measured after 45 mins by TECAN microtiter plate reader analysis
[12] = tested on: B16-F10; assay: Induction of apoptosis in mouse B16-F10 cells assessed as late apoptotic cells at 8 uM incubated for 48 hrs by Annexin V-FITC/PI staining based flow cytometry analysis (reference value: 5.02 %); format: functional
[13] = tested on: B16-F10; assay: Induction of apoptosis in mouse B16-F10 cells assessed as late apoptotic cells at 1 uM incubated for 48 hrs by Annexin V-FITC/PI staining based flow cytometry analysis (reference value: 5.02 %); format: functional
[14] = tested on: B16-F10; assay: Induction of apoptosis in mouse B16-F10 cells assessed as viable cells at 2 uM incubated for 48 hrs by Annexin V-FITC/PI staining based flow cytometry analysis (reference value: 92.3%); format: functional; details: read-out: Activity
[15] = tested on: B16-F10; assay: Induction of cell cycle arrest in mouse B16-F10 cells assessed as accumulation of cells at S phase at 2 uM incubated for 48 hrs by PI staining based flow cytometry analysis (reference value: 24.04%); format: functional
[16] = tested on: B16-F10; assay: Induction of apoptosis in mouse B16-F10 cells assessed as early apoptotic cells at 4 uM incubated for 48 hrs by Annexin V-FITC/PI staining based flow cytometry analysis (reference value: 0.45 %); format: functional
[17] = tested on: B16-F10; assay: Induction of apoptosis in mouse B16-F10 cells assessed as viable cells at 10 uM incubated for 48 hrs by Annexin V-FITC/PI staining based flow cytometry analysis (reference value: 92.3%); format: functional; details: read-out: Activity
[18] = target: Histone deacetylase 3 (Homo sapiens, UniProt O15379); assay: Inhibition of human recombinant HDAC3 using Ac-Leu-Gly-Lys (Ac)-AMC as substrate at 0.1 uM preincubated for 10 mins followed by substrate addition and measured after 45 mins by TECAN microtiter plate reader analysis relative to control; details: time 55.0 min
[19] = tested on: B16-F10; assay: Induction of apoptosis in mouse B16-F10 cells assessed as necrotic cells at 4 uM incubated for 48 hrs by Annexin V-FITC/PI staining based flow cytometry analysis (reference value: 2.24%); format: functional
[20] = Toxicity in C57BL/6J mouse implanted with mouse B16-F10 cells assessed as kidney damage at 20 to 40 mg/kg, ip administered once daily for 9 days by H and E staining based analysis; format: organism-based; details: in vivo, 216 h, dose 20-40 mg/kg, time 9 day
[21] = tested on: B16-F10; assay: Induction of cell cycle arrest in mouse B16-F10 cells assessed as accumulation of cells at G2/M phase at 8 uM incubated for 48 hrs by PI staining based flow cytometry analysis (reference value: 5.87%); format: functional
[22] = Toxicity in C57BL/6J mouse implanted with mouse B16-F10 cells assessed as heart damage at 20 to 40 mg/kg, ip administered once daily for 9 days by H and E staining based analysis; format: organism-based; details: in vivo, 216 h, dose 20-40 mg/kg, time 9 day

Chain of Histone deacetylase 1 (Q13547 whole entry): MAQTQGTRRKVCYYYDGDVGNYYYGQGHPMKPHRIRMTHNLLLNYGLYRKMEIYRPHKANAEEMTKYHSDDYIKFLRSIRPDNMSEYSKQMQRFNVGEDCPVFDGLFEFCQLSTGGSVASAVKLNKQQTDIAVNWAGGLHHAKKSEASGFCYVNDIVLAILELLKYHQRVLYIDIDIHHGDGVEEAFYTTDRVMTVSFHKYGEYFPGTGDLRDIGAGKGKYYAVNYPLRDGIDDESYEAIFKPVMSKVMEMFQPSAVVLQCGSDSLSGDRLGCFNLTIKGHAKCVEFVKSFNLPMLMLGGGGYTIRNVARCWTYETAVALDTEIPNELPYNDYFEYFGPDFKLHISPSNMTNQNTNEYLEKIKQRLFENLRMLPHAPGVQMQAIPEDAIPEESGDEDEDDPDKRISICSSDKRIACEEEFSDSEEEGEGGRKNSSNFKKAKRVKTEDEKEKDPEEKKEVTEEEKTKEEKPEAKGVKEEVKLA
Chain of Histone deacetylase 3 (O15379 whole entry): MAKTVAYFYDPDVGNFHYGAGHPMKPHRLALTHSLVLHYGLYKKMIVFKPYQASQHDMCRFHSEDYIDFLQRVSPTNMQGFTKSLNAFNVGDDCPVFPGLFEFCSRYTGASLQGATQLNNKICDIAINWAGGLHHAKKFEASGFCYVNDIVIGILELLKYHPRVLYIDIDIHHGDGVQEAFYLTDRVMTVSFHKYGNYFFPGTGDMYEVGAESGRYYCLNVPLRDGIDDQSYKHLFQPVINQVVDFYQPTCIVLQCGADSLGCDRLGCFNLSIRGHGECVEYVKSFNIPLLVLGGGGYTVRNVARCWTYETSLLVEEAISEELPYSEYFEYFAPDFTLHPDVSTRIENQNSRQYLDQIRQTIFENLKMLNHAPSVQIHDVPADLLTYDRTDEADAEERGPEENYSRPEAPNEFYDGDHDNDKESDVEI
Chain of Programmed cell death protein 1/Programmed cell death 1 ligand 1 (Q15116 whole entry): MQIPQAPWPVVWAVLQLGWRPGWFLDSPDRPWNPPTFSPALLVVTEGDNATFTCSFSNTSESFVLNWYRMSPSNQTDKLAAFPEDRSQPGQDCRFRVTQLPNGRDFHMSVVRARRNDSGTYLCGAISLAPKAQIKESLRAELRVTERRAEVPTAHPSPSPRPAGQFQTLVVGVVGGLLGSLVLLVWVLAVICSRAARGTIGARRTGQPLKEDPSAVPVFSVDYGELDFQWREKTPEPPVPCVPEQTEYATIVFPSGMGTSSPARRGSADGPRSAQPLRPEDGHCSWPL
Chain of Programmed cell death protein 1/Programmed cell death 1 ligand 1 (Q9NZQ7 whole entry): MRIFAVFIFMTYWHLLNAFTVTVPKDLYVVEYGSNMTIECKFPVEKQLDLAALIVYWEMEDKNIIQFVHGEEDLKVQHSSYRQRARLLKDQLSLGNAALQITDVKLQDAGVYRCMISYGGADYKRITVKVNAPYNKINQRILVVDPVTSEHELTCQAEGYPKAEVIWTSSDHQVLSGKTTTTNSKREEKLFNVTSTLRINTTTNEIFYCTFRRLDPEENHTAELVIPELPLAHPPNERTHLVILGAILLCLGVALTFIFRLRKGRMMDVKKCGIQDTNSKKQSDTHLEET

Question: What does the source list for CCCNNC(=O)CCCNCc1ccc(-c2cccc(-c3ccccc3)c2C)nc1OC?
Answer: inhibition in vivo at 20 mg/kg [1]: 48.9%; pIC50 [2]: 5.63; pIC50 [3]: 5.46; pIC50 [4]: 7.05; inhibition [5]: 94.3%; Activity [6]: 91.66%; Activity [7]: 4.69%; viability at 1 µM [8]: 84.8%; Activity [9]: Active; Activity [10]: 14.1%; pIC50 [11]: 5.65; Activity [12]: 11.4%; Activity [13]: 9.24%; viability at 2 µM [14]: 71.7%; Activity [15]: 7.79%; Activity [16]: 17.1%; viability at 10 µM [17]: 31.3%; inhibition [18]: 42%; Activity [19]: 4.08%; Activity [20]: Non-toxic; Activity [21]: 2.69%; Activity [22]: Non-toxic
